What was measured:
CIA mouse = assay: Suppression of arthritis development in CIA; format: in vivo
Excerpt: Suppression of arthritis development in CIA. DBA1/J mice were immunized with bCII/CFA at day 0 then boosted at day 21 with bCII/IFA. Arthritis development was monitored over the course of study. The arthritis score is as follows: 0=normal paw, score of 1=1-2 digit inflamed paws; score of 2=3 digits or 1-2 digit+wrist or ankle inflamed, score of 3=hand+more than 2 digits inflamed; and score of 4=multiple digits (3-4)+important wrist or ankle inflammation.
(A) Partial therapeutic evaluation of compounds. Active compound was given by oral dosing once daily at the dose indicated from day 20 after induction of antibodies to collagen II but before disease development. (B) Full therapeutic evaluation of compound. Active compound was given after disease was developed (from day 7 after the second immunization). (C) X-ray analysis of mouse paws from full therapeutic CIA study. X-ray score is the index of measurement of combination of osteopenia, bone erosion and new bone formation. (D) Representative X-ray radiographs.
Collagen induced arthritis model. Male DBA/1 mice were immunized intradermally at the base of the tail with 0.1 ml emulsion, containing 150 μg bovine type II collagen emulsified in Freund's complete adjuvant. Three weeks after 1st immunization, all mice were boosted with bovine type II collagen emulsified in Freund's incomplete adjuvant. The severity of arthritic symptoms in the paws of each mouse was graded according to Wood et al. in accordance with known techniques.
Several studies were performed in the mouse CIA model to evaluate anti-arthritic effects of ER-819924-01. Initially ER-819924-01 was studied in a partial therapeutic dosing regimen in which compounds were orally administered daily from day 20 (i.e. after induction of pathogenic anti-type II collagen antibodies, but before arthritis development). Arthritis score (measured as an inflammatory response index of inflamed paw) and body weight were monitored over two weeks. […] We also studied ER-819924-01 in a full therapeutic dosing regimen in which compounds were dosed after the induction of disease.

Prostanoid EP2 = biological target: T1, Prostanoid EP2 (Homo sapiens, UniProt P43116); assay: Competitive radioligand binding (MDS Pharma)
T1 construct: purchased MDS Pharma (outsourced assay)
T1 sequence (P43116 whole entry): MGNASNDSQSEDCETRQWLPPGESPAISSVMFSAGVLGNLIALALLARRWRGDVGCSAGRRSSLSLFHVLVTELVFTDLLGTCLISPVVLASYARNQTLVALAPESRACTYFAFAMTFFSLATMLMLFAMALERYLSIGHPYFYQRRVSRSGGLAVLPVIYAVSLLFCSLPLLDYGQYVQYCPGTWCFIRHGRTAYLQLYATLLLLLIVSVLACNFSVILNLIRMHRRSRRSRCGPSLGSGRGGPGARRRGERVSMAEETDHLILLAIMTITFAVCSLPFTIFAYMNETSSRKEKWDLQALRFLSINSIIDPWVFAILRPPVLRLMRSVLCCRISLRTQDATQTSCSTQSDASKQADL

Prostanoid EP4 = biological target: T2, Prostanoid EP4 (Homo sapiens, UniProt P35408); assay: Competitive radioligand binding (MDS Pharma)
T2 construct: host or cells: EP4-expressing membrane preparations
T2 sequence (P35408 whole entry): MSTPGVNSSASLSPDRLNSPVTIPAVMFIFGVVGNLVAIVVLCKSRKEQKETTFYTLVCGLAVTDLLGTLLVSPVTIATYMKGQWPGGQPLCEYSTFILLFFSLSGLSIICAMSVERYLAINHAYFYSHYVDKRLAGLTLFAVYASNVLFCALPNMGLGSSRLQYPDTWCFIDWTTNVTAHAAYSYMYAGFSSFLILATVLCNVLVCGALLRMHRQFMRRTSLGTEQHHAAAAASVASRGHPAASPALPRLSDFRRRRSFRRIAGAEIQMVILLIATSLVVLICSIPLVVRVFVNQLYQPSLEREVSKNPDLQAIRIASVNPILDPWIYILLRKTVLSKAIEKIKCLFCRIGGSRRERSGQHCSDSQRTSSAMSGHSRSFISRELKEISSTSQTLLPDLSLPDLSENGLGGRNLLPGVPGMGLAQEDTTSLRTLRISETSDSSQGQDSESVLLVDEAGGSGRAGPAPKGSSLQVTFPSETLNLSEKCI
Procedure: Radioligand EP4 binding. The radioligand EP4 binding assay measures displacement of radiolabelled PGE2 from EP4-expressing membrane preparations. Radioligand EP4 binding assay kit was purchased from Millipore, and the assay was performed according to instructions of the manufacture.

CCK1 = biological target: T3, CCK1 (Homo sapiens, UniProt P32238); assay: FLIPR functional screen; format: cell-based; details: antagonist mode
T3 construct: Millipore
T3 sequence (P32238 whole entry): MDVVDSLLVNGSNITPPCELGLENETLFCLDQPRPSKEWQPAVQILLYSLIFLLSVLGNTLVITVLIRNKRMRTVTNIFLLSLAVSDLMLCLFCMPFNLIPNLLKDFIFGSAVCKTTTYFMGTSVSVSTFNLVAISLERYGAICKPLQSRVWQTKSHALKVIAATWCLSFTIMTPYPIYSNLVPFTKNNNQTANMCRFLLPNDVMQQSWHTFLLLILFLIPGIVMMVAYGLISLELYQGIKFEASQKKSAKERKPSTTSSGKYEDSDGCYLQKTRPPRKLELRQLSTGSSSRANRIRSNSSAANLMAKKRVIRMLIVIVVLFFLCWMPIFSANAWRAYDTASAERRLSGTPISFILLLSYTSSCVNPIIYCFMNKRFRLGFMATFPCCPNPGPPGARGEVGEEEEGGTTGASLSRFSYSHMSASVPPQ

CCR3 = biological target: T4, CCR3 (Homo sapiens, UniProt P51677); assay: FLIPR functional screen; format: cell-based; details: antagonist mode
T4 construct: Millipore

CRF2 = biological target: T5, CRF2 (Homo sapiens, UniProt Q13324); assay: FLIPR functional screen; format: cell-based; details: antagonist mode
T5 construct: Millipore
T5 sequence (Q13324 whole entry): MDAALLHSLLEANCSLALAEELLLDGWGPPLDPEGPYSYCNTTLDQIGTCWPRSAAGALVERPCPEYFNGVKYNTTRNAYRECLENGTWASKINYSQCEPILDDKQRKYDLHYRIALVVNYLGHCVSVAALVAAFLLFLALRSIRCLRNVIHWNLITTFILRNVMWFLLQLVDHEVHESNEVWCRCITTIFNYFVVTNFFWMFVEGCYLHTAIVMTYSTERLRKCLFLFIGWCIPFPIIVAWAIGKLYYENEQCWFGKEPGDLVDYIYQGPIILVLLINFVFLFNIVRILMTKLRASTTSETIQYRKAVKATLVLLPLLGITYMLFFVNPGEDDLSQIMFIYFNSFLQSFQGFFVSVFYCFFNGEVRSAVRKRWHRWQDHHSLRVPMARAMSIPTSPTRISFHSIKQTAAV

CXCR2 = biological target: T6, CXCR2 (Homo sapiens, UniProt P25025); assay: FLIPR functional screen; format: cell-based; details: antagonist mode
T6 construct: Millipore
T6 sequence (P25025 whole entry, species assumed): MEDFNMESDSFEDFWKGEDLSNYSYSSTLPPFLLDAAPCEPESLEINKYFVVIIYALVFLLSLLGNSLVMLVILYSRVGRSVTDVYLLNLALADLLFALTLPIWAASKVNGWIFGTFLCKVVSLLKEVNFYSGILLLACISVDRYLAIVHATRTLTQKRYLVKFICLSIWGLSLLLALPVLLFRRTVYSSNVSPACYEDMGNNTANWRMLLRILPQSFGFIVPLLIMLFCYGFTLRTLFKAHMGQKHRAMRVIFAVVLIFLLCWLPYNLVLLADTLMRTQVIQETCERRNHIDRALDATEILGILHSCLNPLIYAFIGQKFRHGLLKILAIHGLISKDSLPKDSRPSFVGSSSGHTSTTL

CXCR3 = biological target: T7, CXCR3 (Homo sapiens, UniProt P49682); assay: FLIPR functional screen; format: cell-based; details: antagonist mode
T7 construct: Millipore
T7 sequence (P49682 whole entry, species assumed): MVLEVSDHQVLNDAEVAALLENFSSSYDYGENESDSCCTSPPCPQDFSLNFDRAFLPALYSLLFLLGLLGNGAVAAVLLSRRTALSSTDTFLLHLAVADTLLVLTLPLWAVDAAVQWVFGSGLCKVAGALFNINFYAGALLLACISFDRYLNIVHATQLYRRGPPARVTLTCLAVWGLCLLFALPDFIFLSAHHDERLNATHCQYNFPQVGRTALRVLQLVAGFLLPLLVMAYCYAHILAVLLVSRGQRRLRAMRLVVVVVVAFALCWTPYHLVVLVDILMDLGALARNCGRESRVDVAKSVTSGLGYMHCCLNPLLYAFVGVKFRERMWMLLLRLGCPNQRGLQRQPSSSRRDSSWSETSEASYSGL

D5 = biological target: T8, D5 (Homo sapiens, UniProt P21918); assay: FLIPR functional screen; format: cell-based; details: antagonist mode
T8 construct: Millipore

EP1 = biological target: T9, EP1 (Homo sapiens, UniProt P34995); assay: FLIPR functional screen; format: cell-based; details: antagonist mode
T9 construct: Millipore

EP4 = biological target: T10, EP4 (Homo sapiens, UniProt P35408); assay: FLIPR functional screen; format: cell-based
T10 construct: SE302 cells that express endogenous EP4; endogenous in cells; host or cells: SE302 cells
T10 sequence (P35408 whole entry): as the sequence (P35408 whole entry) above

FP = biological target: T11, FP (Homo sapiens, UniProt P43088); assay: FLIPR functional screen; format: cell-based; details: antagonist mode
T11 construct: Millipore

FPR2 = biological target: T12, FPR2 (Homo sapiens, UniProt P25090); assay: FLIPR functional screen; format: cell-based; details: antagonist mode
T12 construct: Millipore

GAL1 = biological target: T13, GAL1 (Homo sapiens, UniProt P47211); assay: FLIPR functional screen; format: cell-based; details: antagonist mode
T13 construct: Millipore

GCGR = biological target: T14, GCGR (Homo sapiens, UniProt P47871); assay: FLIPR functional screen; format: cell-based; details: antagonist mode
T14 construct: Millipore

GPR43 = biological target: T15, GPR43 (Homo sapiens, UniProt O15552); assay: FLIPR functional screen; format: cell-based; details: antagonist mode
T15 construct: Millipore
T15 sequence (O15552 whole entry, species assumed): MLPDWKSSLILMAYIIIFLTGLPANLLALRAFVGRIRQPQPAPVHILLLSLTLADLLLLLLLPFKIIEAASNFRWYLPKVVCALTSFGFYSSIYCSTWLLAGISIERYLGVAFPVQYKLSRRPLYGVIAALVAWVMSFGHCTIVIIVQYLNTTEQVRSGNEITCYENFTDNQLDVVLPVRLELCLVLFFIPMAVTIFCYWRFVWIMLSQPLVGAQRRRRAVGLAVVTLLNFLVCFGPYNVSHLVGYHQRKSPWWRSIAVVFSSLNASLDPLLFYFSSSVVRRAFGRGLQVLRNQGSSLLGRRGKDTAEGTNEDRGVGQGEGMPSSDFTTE

GPR54 = biological target: T16, GPR54 (Homo sapiens, UniProt Q969F8); assay: FLIPR functional screen; format: cell-based; details: antagonist mode
T16 construct: Millipore

H3 = biological target: T17, H3 (Homo sapiens, UniProt Q9Y5N1); assay: FLIPR functional screen; format: cell-based; details: antagonist mode
T17 construct: Millipore
T17 sequence (Q9Y5N1 whole entry): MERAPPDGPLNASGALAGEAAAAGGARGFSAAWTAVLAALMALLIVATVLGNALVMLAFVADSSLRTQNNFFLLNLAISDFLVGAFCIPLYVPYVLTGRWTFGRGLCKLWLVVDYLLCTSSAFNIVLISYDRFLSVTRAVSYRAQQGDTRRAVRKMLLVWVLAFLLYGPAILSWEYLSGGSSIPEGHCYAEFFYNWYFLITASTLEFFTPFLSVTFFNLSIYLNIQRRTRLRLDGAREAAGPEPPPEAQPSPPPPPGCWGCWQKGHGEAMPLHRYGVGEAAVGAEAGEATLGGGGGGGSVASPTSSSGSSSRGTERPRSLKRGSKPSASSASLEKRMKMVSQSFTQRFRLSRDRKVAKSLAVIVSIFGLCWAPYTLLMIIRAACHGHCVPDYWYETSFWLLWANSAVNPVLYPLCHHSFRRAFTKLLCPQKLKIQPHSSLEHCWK

M4 = biological target: T18, M4 (Homo sapiens, UniProt P08173); assay: FLIPR functional screen; format: cell-based; details: antagonist mode
T18 construct: Millipore
T18 sequence (P08173 whole entry): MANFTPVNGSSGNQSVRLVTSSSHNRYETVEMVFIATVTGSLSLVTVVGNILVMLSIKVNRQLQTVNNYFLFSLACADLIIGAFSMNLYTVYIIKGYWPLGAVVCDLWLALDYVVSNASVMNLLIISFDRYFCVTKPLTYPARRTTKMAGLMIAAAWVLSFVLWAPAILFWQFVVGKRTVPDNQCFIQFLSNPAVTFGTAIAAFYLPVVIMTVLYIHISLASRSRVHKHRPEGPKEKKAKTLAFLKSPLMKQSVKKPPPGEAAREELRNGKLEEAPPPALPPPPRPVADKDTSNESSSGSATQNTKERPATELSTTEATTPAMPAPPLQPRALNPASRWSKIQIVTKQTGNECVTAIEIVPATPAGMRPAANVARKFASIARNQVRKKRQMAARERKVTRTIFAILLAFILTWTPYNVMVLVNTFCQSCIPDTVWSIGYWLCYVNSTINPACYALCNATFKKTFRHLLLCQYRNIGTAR

NMU1 = biological target: T19, NMU1 (Homo sapiens, UniProt Q9HB89); assay: FLIPR functional screen; format: cell-based; details: antagonist mode
T19 construct: Millipore

OPRD1 = biological target: T20, OPRD1 (Homo sapiens, UniProt P41143); assay: FLIPR functional screen; format: cell-based; details: antagonist mode
T20 construct: Millipore
T20 sequence (P41143 whole entry, species assumed): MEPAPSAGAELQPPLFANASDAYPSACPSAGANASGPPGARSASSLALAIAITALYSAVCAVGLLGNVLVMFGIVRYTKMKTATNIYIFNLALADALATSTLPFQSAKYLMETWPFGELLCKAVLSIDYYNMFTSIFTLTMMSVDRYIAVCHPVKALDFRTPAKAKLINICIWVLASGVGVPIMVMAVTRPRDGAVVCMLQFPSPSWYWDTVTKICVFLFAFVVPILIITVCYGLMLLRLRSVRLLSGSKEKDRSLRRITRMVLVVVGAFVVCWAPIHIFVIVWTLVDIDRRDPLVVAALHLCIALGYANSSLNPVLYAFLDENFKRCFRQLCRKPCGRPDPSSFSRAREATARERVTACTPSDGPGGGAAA

OPRK1 = biological target: T21, OPRK1 (Homo sapiens, UniProt P41145); assay: FLIPR functional screen; format: cell-based; details: antagonist mode
T21 construct: Millipore

OX1 = biological target: T22, OX1 (Homo sapiens, UniProt O43613); assay: FLIPR functional screen; format: cell-based; details: antagonist mode
T22 construct: Millipore
T22 sequence (O43613 whole entry): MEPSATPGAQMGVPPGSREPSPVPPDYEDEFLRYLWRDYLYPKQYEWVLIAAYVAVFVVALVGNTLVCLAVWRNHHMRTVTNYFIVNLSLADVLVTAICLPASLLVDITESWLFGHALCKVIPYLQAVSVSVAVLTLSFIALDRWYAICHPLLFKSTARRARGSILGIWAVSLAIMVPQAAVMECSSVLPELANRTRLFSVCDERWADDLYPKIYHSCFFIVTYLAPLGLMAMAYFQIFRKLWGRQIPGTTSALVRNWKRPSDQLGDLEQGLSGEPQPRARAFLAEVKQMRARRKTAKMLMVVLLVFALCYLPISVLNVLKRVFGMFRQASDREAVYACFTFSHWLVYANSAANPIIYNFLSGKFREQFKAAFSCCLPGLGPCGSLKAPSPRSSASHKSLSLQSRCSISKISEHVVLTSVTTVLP

P2Y1 = biological target: T23, P2Y1 (Homo sapiens, UniProt P47900); assay: FLIPR functional screen; format: cell-based; details: antagonist mode
T23 construct: Millipore
T23 sequence (P47900 whole entry, species assumed): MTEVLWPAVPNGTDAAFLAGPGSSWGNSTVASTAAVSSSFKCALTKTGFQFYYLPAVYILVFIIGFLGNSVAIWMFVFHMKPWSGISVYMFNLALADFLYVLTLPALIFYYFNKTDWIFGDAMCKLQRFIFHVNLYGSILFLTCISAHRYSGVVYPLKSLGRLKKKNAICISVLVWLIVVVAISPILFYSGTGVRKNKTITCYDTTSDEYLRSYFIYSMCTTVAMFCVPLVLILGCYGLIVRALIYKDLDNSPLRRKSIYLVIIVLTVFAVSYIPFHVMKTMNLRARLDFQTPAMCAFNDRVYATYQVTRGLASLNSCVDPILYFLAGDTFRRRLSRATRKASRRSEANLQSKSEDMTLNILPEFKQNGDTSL

TRH = biological target: T24, TRH (Homo sapiens, UniProt P34981); assay: FLIPR functional screen; format: cell-based; details: antagonist mode
T24 construct: Millipore

V1A = biological target: T25, V1A (Homo sapiens, UniProt P37288); assay: FLIPR functional screen; format: cell-based; details: antagonist mode
T25 construct: Millipore

VPAC2 = biological target: T26, VPAC2 (Homo sapiens, UniProt P41587); assay: FLIPR functional screen; format: cell-based; details: antagonist mode
T26 construct: Millipore

CCN1C(=O)N2Cc3cc(OC)cc(OC)c3[C@@H](C)C=C2C12CCN(Cc1cccn1C)CC2 [ER-819924-01]
X-ray score (CIA mouse; 30 mg/kg, separate study): significantly improved X-ray score
ED50 (CIA mouse; Mus musculus, 480 h, partial therapeutic dosing, oral daily from day 20): ~10 mg/kg
arthritis development under full therapeutic dosing (CIA mouse; dosed after induction of disease, 10 mg/kg): effectively prevented further arthritis development
% INHIBITION (Prostanoid EP2; CONC. 0.1 μm): −3%
% INHIBITION (Prostanoid EP2; CONC. 1 μm): 1%
% INHIBITION (Prostanoid EP4; CONC. 0.1 μm): 21%
% INHIBITION (Prostanoid EP4; CONC. 1 μm): 71%
binding selectivity for EP4 over other EP/prostanoid/leukotriene receptors (Prostanoid EP4; competitive radioligand binding assay): selectively bind to EP4
inhibition at 1 µM (CCK1): 13%
inhibition at 1 µM (CCR3): -5.6%
inhibition at 1 µM (CRF2): -7%
inhibition at 1 µM (CXCR2): 1.2%
inhibition at 1 µM (CXCR3): 3.2%
inhibition at 1 µM (D5): 34.7%
inhibition at 1 µM (EP1): -2%
activity in FLIPR functional screen versus other GPCR's (EP4; 1 μM, Millipore outsourced data): showed activity only against the EP4 receptor
inhibition at 1 µM (EP4; antagonist mode): 100%
inhibition at 1 µM (FP): 14%
inhibition at 1 µM (FPR2): 6.9%
inhibition at 1 µM (GAL1): 9.1%
inhibition at 1 µM (GCGR): 8.6%
inhibition at 1 µM (GPR43): 10.6%
inhibition at 1 µM (GPR54): -0.4%
inhibition at 1 µM (H3): -31.5%
inhibition at 1 µM (M4): 10.5%
inhibition at 1 µM (NMU1): -14%
inhibition at 1 µM (OPRD1): 5.7%
inhibition at 1 µM (OPRK1): 6.2%
inhibition at 1 µM (OX1): 0.7%
inhibition at 1 µM (P2Y1): -37.5%
inhibition at 1 µM (TRH): -11.1%
inhibition at 1 µM (V1A): -3.9%
inhibition at 1 µM (VPAC2): -3.7%

From US20100305098A1, “METHODS OF USE” (priority 2007, published 2010)
